Measurements published in ChEMBL document CHEMBL1833824, “Effects of cyclization on stability, structure, and activity of α-conotoxin RgIA at the α9α10 nicotinic acetylcholine receptor and GABA(B) receptor” (J Med Chem, 2011).
Bridge positions count the residues as written; N and C are the ends. Peptide text beside a SMILES is read from it.

How the values were obtained:
[1] = Inhibition of human alpha-9/rat alpha-10 nAChR expressed in Xenopus oocytes assessed as inhibition of acetylcholine-induced current by voltage clamp assay; format: cell-based; conditions: Oocyte
[2] = Inhibition of GABA-B receptor-mediated high voltage-activated Ca2+ channel current in Wistar rat DRG neurons by whole-cell patch clamp assay; conditions: DRG neuron
Oocyte [3] = assay: Inhibition of human alpha-9/rat alpha-10 nACHR expressed in Xenopus oocytes assessed as inhibition of acetylcholine-induced current at 50 nM by voltage clamp assay; format: cell-based
Oocyte [4] = assay: Inhibition of human alpha-9/rat alpha-10 nACHR expressed in Xenopus oocytes assessed as inhibition of acetylcholine-induced current by voltage clamp assay relative to RgIA; format: cell-based; conditions: dose or concentration not given here
[5] = Metabolic stability in human AB positive serum assessed as compound degradation at 20 uM at 5 hrs; format: ADME, cell-free; conditions: read-out: Drug metabolism

Structure (SMILES)	IC50 [1]	IC50 [2]	inhibition (Oocyte [3])	inhibition (Oocyte [4])	metabolised at 5 h, 20 µM [5]
N=C(N)NCCC[C@H](NC(=O)[C@@H]1CSSC[C@@H]2NC(=O)[C@@H](NC(=O)CN)CSSC[C@H](NC(=O)[C@H](CCCNC(=N)N)NC(=O)[C@@H]3CCCN3C(=O)[C@H](CC(=O)O)NC(=O)[C@H](CO)NC2=O)C(=O)N[C@@H](CCCNC(=N)N)C(=O)N[C@@H](Cc2ccc(O)cc2)C(=O)N[C@@H](CCCNC(=N)N)C(=O)N1)C(=O)O	40 nM	40.7 nM	60%	–	–
C[C@H](NC(=O)[C@H](C)NC(=O)CNC(=O)[C@@H]1CSSC[C@H](NC(=O)CN)C(=O)N[C@H]2CSSC[C@H](NC(=O)[C@H](CCCNC(=N)N)NC(=O)[C@@H]3CCCN3C(=O)[C@H](CC(=O)O)NC(=O)[C@H](CO)NC2=O)C(=O)N[C@@H](CCCNC(=N)N)C(=O)N[C@@H](Cc2ccc(O)cc2)C(=O)N[C@@H](CCCNC(=N)N)C(=O)N1)C(=O)O (H-GCCSDPRCRYRCGAA-OH; disulfide 2-12, 3-8)	–	82.5 nM	–	8%	–
C[C@H](NC(=O)CNC(=O)CNC(=O)[C@@H]1CSSC[C@H](NC(=O)CN)C(=O)N[C@H]2CSSC[C@H](NC(=O)[C@H](CCCNC(=N)N)NC(=O)[C@@H]3CCCN3C(=O)[C@H](CC(=O)O)NC(=O)[C@H](CO)NC2=O)C(=O)N[C@@H](CCCNC(=N)N)C(=O)N[C@@H](Cc2ccc(O)cc2)C(=O)N[C@@H](CCCNC(=N)N)C(=O)N1)C(=O)N[C@@H](C)C(=O)NCC(=O)NCC(=O)O (H-GCCSDPRCRYRCGGAAGG-OH; disulfide 2-12, 3-8)	> 50 nM	4.3 nM	–	39%	43%
N=C(N)NCCC[C@@H]1NC(=O)[C@H](Cc2ccc(O)cc2)NC(=O)[C@H](CCCNC(=N)N)NC(=O)[C@@H]2CSSC[C@H](NC(=O)CN)C(=O)N[C@@H](CSSC[C@@H](C(=O)O)NC1=O)C(=O)N[C@@H](CO)C(=O)N[C@@H](CC(=O)O)C(=O)N1CCC[C@H]1C(=O)N[C@@H](CCCNC(=N)N)C(=O)N2 (H-GCCSDPRCRYRC-OH; disulfide 2-8, 3-12)	34 nM	4.4 nM	55%	–	92%
C[C@H](NC(=O)CNC(=O)[C@@H]1CSSC[C@H](NC(=O)CN)C(=O)N[C@H]2CSSC[C@H](NC(=O)[C@H](CCCNC(=N)N)NC(=O)[C@@H]3CCCN3C(=O)[C@H](CC(=O)O)NC(=O)[C@H](CO)NC2=O)C(=O)N[C@@H](CCCNC(=N)N)C(=O)N[C@@H](Cc2ccc(O)cc2)C(=O)N[C@@H](CCCNC(=N)N)C(=O)N1)C(=O)N[C@@H](C)C(=O)NCC(=O)O (H-GCCSDPRCRYRCGAAG-OH; disulfide 2-12, 3-8)	–	70.1 nM	–	12%	–
C[C@H](NC(=O)CNC(=O)[C@@H]1CSSC[C@H](NC(=O)CN)C(=O)N[C@H]2CSSC[C@H](NC(=O)[C@H](CCCNC(=N)N)NC(=O)[C@@H]3CCCN3C(=O)[C@H](CC(=O)O)NC(=O)[C@H](CO)NC2=O)C(=O)N[C@@H](CCCNC(=N)N)C(=O)N[C@@H](Cc2ccc(O)cc2)C(=O)N[C@@H](CCCNC(=N)N)C(=O)N1)C(=O)N[C@@H](C)C(=O)NCC(=O)NCC(=O)O (H-GCCSDPRCRYRCGAAGG-OH; disulfide 2-12, 3-8)	–	11.5 nM	–	25%	–
C[C@H](NC(=O)CNC(=O)[C@H](C)NC(=O)[C@H](C)NC(=O)CNC(=O)CNC(=O)[C@@H]1CSSC[C@H](NC(=O)CN)C(=O)N[C@H]2CSSC[C@H](NC(=O)[C@H](CCCNC(=N)N)NC(=O)[C@@H]3CCCN3C(=O)[C@H](CC(=O)O)NC(=O)[C@H](CO)NC2=O)C(=O)N[C@@H](CCCNC(=N)N)C(=O)N[C@@H](Cc2ccc(O)cc2)C(=O)N[C@@H](CCCNC(=N)N)C(=O)N1)C(=O)NCC(=O)O (H-GCCSDPRCRYRCGGAAGAG-OH; disulfide 2-12, 3-8)	19 nM	36.3 nM	60%	–	54%
